Assay results from patent US20150105252A1, “SUBSTITUTED PYRAZOLES AS HERBICIDES” (E I DU PONT DE NEMOURS AND COMPANY, priority 2013, published 2015).

Key:
goosegrass = test: Test C preemergence; format: in vivo, Eleusine indica; settings: for Plant response rating (scale of 0 to 100), Goosegrass: Preemergence, 250 g ai/ha; for Goosegrass plant response rating / Plant response rating, Goosegrass: preemergence; for Plant response rating, Goosegrass: 62 g ai/ha, scale 0 to 100, 0 = no effect, 100 = complete control
Description: (§1) Seeds of plant species selected from blackgrass (Alopecurus myosuroides), ryegrass, Italian (Italian ryegrass, Lolium multiflorum), wheat (winter wheat, Triticum aestivum), galium (catchweed bedstraw, Galium aparine), corn (Zea mays), crabgrass, large (large crabgrass, Digitaria sanguinalis), foxtail, giant (giant foxtail, Setaria faberii), johnsongrass (Sorghum halepense), lambsquarters (Chenopodium album), morningglory (Ipomoea coccinea), nutsedge, yellow (yellow nutsedge, Cyperus esculentus), pigweed (redroot pigweed, Amaranthus retroflexus), ragweed (common ragweed, Ambrosia elation), soybean (Glycine max), barnyardgrass (Echinochloa crus-galli), oilseed rape (Brassica napus), waterhemp (common waterhemp, Amaranthus rudis), oat, wild (wild oat, Avena fatua), kochia (Kochia scoparia), Surinam grass (Brachiaria decumbens), foxtail, green (green foxtail, Setaria viridis), goosegrass (Eleusine indica), bromegrass, downy (downy bromegrass, Bromus tectorum), nightshade (eastern black nightshade, Solanum ptycanthum), cocklebur (common cocklebur, Xanthium strumarium), cupgrass, woolly (woolly cupgrass, Eriochloa villosa), bermudagrass (Cynodon dactylon), sunflower, (common oilseed sunflower, Helianthus annuus), Russian thistle (Salsola kali), and velvetleaf (Abutilon theophrasti) were planted into a blend of loam soil and sand and treated preemergence with test chemicals formulated in a non-phytotoxic solvent mixture which included a surfactant.
(§2) At the same time, plants selected from these crop and weed species and also chickweed (common chickweed, Stellaria media), canarygrass (littleseed canarygrass, Phalaris minor), and deadnettle (henbit deadnettle, Lamium amplexicaule), were planted in pots containing Redi-Earth® planting medium (Scotts Company, 14111 Scottslawn Road, Marysville, Ohio 43041) comprising spaghnum peat moss, vermiculite, wetting agent and starter nutrients and treated with postemergence applications of test chemicals formulated in the same manner. Plants ranged in height from 2 to 18 cm (1- to 4-leaf stage) for postemergence treatments. Treated plants and controls were maintained in a greenhouse for 13 to 15 days, after which time all species were compared to controls and visually evaluated. Plant response ratings, summarized in Table C, are based on a scale of 0 to 100 where 0 is no effect and 100 is complete control. A dash (-) response means no test result.

bromegrass, downy = test: Test C preemergence; format: in vivo, Bromus tectorum; settings: for Plant response rating (scale of 0 to 100), Bromegrass, Downy: Preemergence, 250 g ai/ha; for Bromegrass, Downy plant response rating / Plant response rating, Bromegrass, Downy: preemergence; for Plant response rating, Bromegrass, Downy: 62 g ai/ha, scale 0 to 100, 0 = no effect, 100 = complete control
Description: as §1, §2

barley = test: Test C postemergence; format: in vivo, Hordeum vulgare; settings: scale 0 to 100
crabgrass, Brazil = test: Test F preemergence; format: in vivo, Digitaria horizontalis
Description: (§3) Seeds of plant species selected from corn (Zea mays), soybean (Glycine max), velvetleaf (Abutilon theophrasti), lambsquarters (Chenopodium album), wild poinsettia (Euphorbia heterophylla), pigweed, palmer (palmer pigweed, Amaranthus palmeri), common waterhemp (Amaranthus rudis), surinam grass (Brachiaria decumbens), large crabgrass (Digitaria sanguinalis), crabgrass, Brazil (Brazilian crabgrass, Digitaria horizontalis), fall panicum (Panicum dichotomiflorum), giant foxtail (Setaria faberii), green foxtail (Setaria viridis), goosegrass (Eleusine indica), johnsongrass (Sorghum halepense), common ragweed (Ambrosia elation), barnyardgrass (Echinochloa crus-galli), southern sandbur (Cenchrus echinatus), arrowleaf sida (Sida rhombifolia), Italian ryegrass (Lolium multiflorum), dayflower, VA (Virginia (VA) dayflower, Commelina virginica), field bindweed (Convolvulus arvensis), cocklebur (common cocklebur, Xanthium strumarium), morningglory (Ipomoea coccinea), nightshade (eastern black nightshade, Solanum ptycanthum), kochia (Kochia scoparia), yellow nutsedge (Cyperus esculentus), and hairy beggarticks (Bidens pilosa), were planted into a silt loam soil and treated preemergence with test chemicals formulated in a non-phytotoxic solvent mixture which included a surfactant.
(§4) At the same time, plants from these crop and weed species and also horseweed (Canada horseweed, Conyza canadensis), smartweed (ladysthumb smartweed, Polygonum persicaria), waterhemp_RES1, (ALS & Triazine resistant common waterhemp, Amaranthus rudis), and waterhemp_RES2, (ALS & HPPD resistant common waterhemp, Amaranthus rudis) were treated with postemergence applications of test chemicals formulated in the same manner. Plants ranged in height from 2 to 18 cm for postemergence treatments (1- to 4-leaf stage). Treated plants and controls were maintained in a greenhouse for 14 to 21 days, after which time all species were compared to controls and visually evaluated. Plant response ratings, summarized in Table F, are based on a scale of 0 to 100 where 0 is no effect and 100 is complete control. A dash (-) response means no test result.

velvetleaf = test: Test F preemergence; format: in vivo, Abutilon theophrasti
Description: as §3, §4

soybean = test: Test F preemergence; format: in vivo, Glycine max
Description: as §3, §4

[1] = 31 g ai/ha, scale 0 to 100 (0 no effect, 100 complete control), 13 to 15 days
[2] = 125 g ai/ha, scale 0 to 100, 0 is no effect, 100 is complete control
[3] = Preemergence, 16 g ai/ha, scale 0 to 100
[4] = Preemergence, 62 g ai/ha, scale 0 to 100
[5] = Preemergence, 125 g ai/ha, scale 0 to 100
[6] = Preemergence, 250 g ai/ha, scale 0 to 100
[7] = preemergence, 16 g ai/ha, scale 0 to 100, 100 is complete control
[8] = Preemergence, 31 g ai/ha, scale 0 to 100
[9] = preemergence, 8 g ai/ha, scale 0 to 100, 100 is complete control

| Structure (SMILES) | Plant response rating (scale of 0 to 100), Goosegrass (goosegrass) | Goosegrass plant response rating (goosegrass; [1]) | Plant response rating, Goosegrass (goosegrass; 13 to 15 days) | Goosegrass plant response rating (goosegrass; [2]) | Plant response rating (scale of 0 to 100), Bromegrass, Downy (bromegrass, downy) | Bromegrass, Downy plant response rating (bromegrass, downy; [1]) | Plant response rating, Bromegrass, Downy (bromegrass, downy; 13 to 15 days) | Bromegrass, Downy plant response rating (bromegrass, downy; [2]) | Barley plant response rating (barley; Postemergence, 31 g ai/ha) | Plant response rating, Crabgrass, Brazil (crabgrass, Brazil; [4]) | Plant response rating, Crabgrass, Brazil (crabgrass, Brazil; [5]) | Plant response rating, Velvetleaf (velvetleaf; [4]) | Plant response rating, Velvetleaf (velvetleaf; [5]) | further results |
| --- | --- | --- | --- | --- | --- | --- | --- | --- | --- | --- | --- | --- | --- | --- |
| CCONC(=O)c1cc(CC)n(Cc2cccc(OC(F)(F)F)c2)n1 [Compound 72] | 98 | 75 | 98 | 98 | 90 | 5 | 45 | 80 | 0 |  |  |  |  | Barley plant response rating (barley; postemergence, 62 g ai/ha): 5 |
| Cc1cc(C(=O)NCC(F)(F)F)nn1Cc1ccnc(C(F)(F)F)c1 [Compound 74] | 100 | 75 | 85 | 100 | 95 | 0 | 5 | 50 | 0 |  |  |  |  | Barley plant response rating (barley; postemergence, 62 g ai/ha): 0 |
| CCCNC(=O)c1cc(CC)n(Cc2cccc(OC(F)(F)F)c2)n1 [Compound 27] |  |  |  |  |  |  |  |  | 10 |  |  |  |  |  |
| CCCc1cc(C(=O)NC(C)C)nn1Cc1cc(C(F)(F)F)nn1C [Compound 201] |  |  |  |  |  |  |  |  |  | 95 | 100 | 0 | 30 | Plant response rating, Crabgrass, Brazil (crabgrass, Brazil; [3]): 75; Plant response rating, Crabgrass, Brazil (crabgrass, Brazil; [6]): 100; Plant response rating, Crabgrass, Brazil (crabgrass, Brazil; [7]): 0; Plant response rating, Velvetleaf (velvetleaf; [6]): 100; Plant response rating, Velvetleaf (velvetleaf; [7]): 0; Plant response rating, Velvetleaf (velvetleaf; preemergence, scale 0 to 100, 100 is complete control): 0; Plant response rating, Soybean (soybean; [3]): 0; Plant response rating, Soybean (soybean; [5]): 40; Plant response rating, Soybean (soybean; [6]): 40; Plant response rating, Soybean (soybean; [7]): 0 |
| CCc1cc(C(=O)NCC(F)(F)F)nn1Cc1cccc(OC(F)(F)F)c1 [Compound 20] |  |  |  |  |  |  |  |  | 15 |  |  |  |  |  |
| CCc1cc(-c2ccc(C(F)(F)F)cc2)nn1Cc1ccnc(C(F)(F)F)c1 [Compound 110] |  |  |  |  |  |  |  |  |  | 100 | 100 | 40 | 75 | Plant response rating, Crabgrass, Brazil (crabgrass, Brazil; [8]): 100; Plant response rating, Crabgrass, Brazil (crabgrass, Brazil; [9]): 50; Plant response rating, Crabgrass, Brazil (crabgrass, Brazil; [7]): 70; Plant response rating, Velvetleaf (velvetleaf; [8]): 30; Plant response rating, Velvetleaf (velvetleaf; [9]): 20; Plant response rating, Velvetleaf (velvetleaf; [7]): 35; Plant response rating, Soybean (soybean; [8]): 15; Plant response rating, Soybean (soybean; [4]): 0; Plant response rating, Soybean (soybean; [9]): 0 |
| CCc1cc(C(=O)NCC(F)(F)F)nn1Cc1ccnc(Br)c1 [Compound 224] |  |  |  |  |  |  |  |  |  | 98 | 100 | 50 | 80 | Plant response rating, Crabgrass, Brazil (crabgrass, Brazil; [6]): 100; Plant response rating, Velvetleaf (velvetleaf; [6]): 95; Plant response rating, Soybean (soybean; [4]): 25; Plant response rating, Soybean (soybean; [5]): 20; Plant response rating, Soybean (soybean; [6]): 50 |
| CCc1cc(C(=O)NOC(C)C)nn1Cc1cccc(OC(F)(F)F)c1 [Compound 70] | 98 | 60 | 80 | 95 | 80 | 20 | 35 | 40 | 0 |  |  |  |  |  |
